Measurements published in US20060275170A1, “Method for terminal sterilization of transdermal delivery devices” (priority 2005, published 2006).
“Also recorded” adds a separate entry of the source.

How the values were obtained:
Assay type in all cases: physicochemical
[1] = Example 4: purity of coated hPTH(1-34) after 15 kGy gamma or e-beam; desiccant, temperature and sucrose content varied (RP-HPLC, SEC-HPLC)
Protocol: In this example, formulations of hPTH(1-34) were prepared, comprising 20% w/w HPTH, 20% sucrose or 40% sucrose, 0.2% polysorbate 20 and 0.03% EDTA. The arrays were assembled with a polycarbonate retainer ring and an adhesive. The arrays were sealed in foil pouches purged with nitrogen. Certain samples included a 4 Å molecular seive desiccant. The arrays were exposed to 15 kGy of gamma or e-beam radiation at under dry ice, 2-8° C. or an ambient temperature. As discussed above, the purity and degradation of the PTH formulations was assessed using RP-HPLC and SEC-HPLC.

[2] = Example 1: purity and degradation products of hPTH(1-34) coated microprojection arrays after gamma or e-beam irradiation (RP-HPLC and SEC-HPLC)
Protocol: Validation reverse-phase and size-exclusion high pressure liquid chromatography (RP-HPLC and SEC-HPLC, respectively) were used to quantify PTH oxidation resulting from exposure to the sterilizing radiation. Formulations of hPTH(1-34) were prepared, comprising 20% w/w HPTH, 20% sucrose, 0.2% polysorbate 20 and 0.03% EDTA. The PTH formulations were coated onto microprojection arrays, which were then enclosed in glass vials. The coated arrays were irradiated with 7, 14 or 21 kGy radiation doses, from either gamma radiation or e-beam, under dry ice or an ambient temperature. […] Tables 1 and 2 give the data corresponding to the purity and degradation products for gamma radiation and e-beam, respectively.

[3] = Example 2: purity and oxidation of coated hPTH after gamma irradiation or ethylene oxide sterilization; packaging and antioxidants varied (RP-HPLC, SEC-HPLC); details: for degradation: glass vial
Protocol: Formulations of hPTH(1-34) were prepared as set forth in Example 1, and coated on microprojection arrays. In addition to the standard 1:1 sucrose:hPTH formulations discussed above, the effect of antioxidants was assessed by adding to selected samples 5% w/w methionine or 3.3% w/w ascorbic acid. The coated arrays were placed in nitrogen purged heat-sealed foil pouches or glass vials. Also, one of the samples was subjected to ethylene oxide sterilization as a comparison. The remaining samples were subjected to dose of gamma radiation of either 7, 14 or 21 kGy under dry ice or an ambient temperature. As discussed above, the purity and degradation of the PTH formulations was assessed using RP-HPLC and SEC-HPLC.

[4] = Example 3: purity and oxidation of coated hPTH(1-34) after gamma irradiation; packaging, purge gas and temperature varied (RP-HPLC, SEC-HPLC)
Protocol: Formulations of hPTH(1-34) were prepared as set forth in Example 1, and coated on microprojection arrays. Certain arrays were assembled with a polycarbonate retainer ring and an adhesive. The arrays were sealed in foil pouches purged with nitrogen or ambient air or in glass vials. The arrays were exposed to 14 or 21 kGy of gamma radiation under dry ice or an ambient temperature. As discussed above, the purity and degradation of the PTH formulations was assessed using RP-HPLC and SEC-HPLC.

impact of amount of sucrose on stability during irradiation ([1]; 1:1 versus 2:1 sucrose:hPTH, gamma or e-beam, FIG. 15): did not have a significant impact
degradation, e-beam sterilization versus gamma irradiation ([1]; 15 kGy, same temperature, FIG. 13): less degradation
degradation ([1]; sample without a desiccant, 15 kGy, FIG. 13): most degradation
loss of purity ([2]; 7 kGy under dry ice, compared with other doses and temperatures): least loss of purity
degradation (oxidation) ([2]; 21 kGY dose, particularly at an ambient temperature): less degradation
aggregation following irradiation ([2]; FIG. 6, gamma and e-beam, 7-21 kGy): relatively low
degradation, e-beam sterilization less than gamma radiation ([2]; at the high radiation doses): 5-10%
purity of PTH relative to a control formulation ([2]; gamma radiation and e-beam exposure, FIG. 5): decreased
deamidated products ([2]; irradiated formulations versus control formulation): comparable to the control formulation
deamidation and aggregation degradation products ([3]; FIG. 8): not prominent
morphology ([3]; ethylene oxide sterilized sample): altered substantially
degradation ([3]; gamma 21 kGy, ambient temperature, FIG. 8): severe
oxidation ([3]; gamma irradiated samples packaged in nitrogen purged foil pouches): minimal oxidation
purity of hPTH ([3]; gamma radiation, samples other than 21 kGy glass vial ambient (foil pouch, dry ice, 7 or 14 kGy), FIG. 7): comparable to that of the controls
stability following irradiation ([4]; arrays with polycarbonate retainer ring and acrylate adhesive, nitrogen purged foil pouch, 14 and 21 kGy, dry ice, FIG. 12): adequate stability
oxidation ([4]; gamma 14 kGy, foil pouch sealed with ambient air, dry ice and ambient temperature, FIG. 11): major oxidation
purity ([4]; gamma 14 kGy, nitrogen purged foil pouch, dry ice and ambient temperature, FIG. 11): comparable to the controls
increase in oxidation ([4]; gamma 21 kGy, ambient temperature, nitrogen purged foil pouch, FIG. 10): approximately 2%
oxidation ([4]; gamma 21 kGy, ambient temperature, nitrogen purged glass vial, FIG. 10): approximately 40%
increase in overall oxidation ([4]; gamma 21 kGy, nitrogen purged foil pouch, ambient temperature): less than 4%
increase in overall oxidation ([4]; gamma 21 kGy, nitrogen purged foil pouch, dry ice): less than 2%
Compound: CC[C@H](C)[C@H](NC(=O)[C@H](CCC(=O)O)NC(=O)[C@H](CO)NC(=O)[C@@H](NC(=O)[C@@H](N)CO)C(C)C)C(=O)N[C@@H](CCC(N)=O)C(=O)N[C@@H](CC(C)C)C(=O)N[C@@H](CCSC)C(=O)N[C@@H](Cc1cnc[nH]1)C(=O)N[C@@H](CC(N)=O)C(=O)N[C@@H](CC(C)C)C(=O)NCC(=O)N[C@@H](CCCCN)C(=O)N[C@@H](Cc1cnc[nH]1)C(=O)N[C@@H](CC(C)C)C(=O)N[C@@H](CC(N)=O)C(=O)N[C@@H](CO)C(=O)N[C@@H](CCSC)C(=O)N[C@@H](CCC(=O)O)C(=O)N[C@@H](CCCN=C(N)N)C(=O)N[C@H](C(=O)N[C@@H](CCC(=O)O)C(=O)N[C@@H](Cc1c[nH]c2ccccc12)C(=O)N[C@@H](CC(C)C)C(=O)N[C@@H](CCCN=C(N)N)C(=O)N[C@@H](CCCCN)C(=O)N[C@@H](CCCCN)C(=O)N[C@@H](CC(C)C)C(=O)N[C@@H](CCC(N)=O)C(=O)N[C@@H](CC(=O)O)C(=O)N[C@H](C(=O)N[C@@H](Cc1cnc[nH]1)C(=O)N[C@@H](CC(N)=O)C(=O)N[C@@H](Cc1ccccc1)C(=O)O)C(C)C)C(C)C [hPTH(1-34)]
degradation ([3]; ethylene oxide sterilization): considerable degradation; also recorded: severe
loss in purity relative to the control ([4]; gamma 21 kGy, nitrogen purged foil pouch, FIG. 9): did not suffer a significant loss in purity
